Laboratory results from patent US20240336654A1, “ANTIMICROBIAL PEPTIDOMIMETICS” (SPEXIS AG, priority 2021, published 2024).
Where a SMILES comes first, the peptide text is derived from it. Bridges are numbered along the chain shown (N, C = ends). [ ]: non-standard residue; d: D form. The star is where a group is joined. Val(Nα-amidino) = CC(C)[C@H](NC(=N)N)C(=O)*; Hyp = O=C(O)[C@@H]1C[C@@H](O)CN1; Cit = NC(=O)NCCC[C@H](N)C(=O)O; Pen = CC(C)(S)[C@H](N)C(=O)O; dDab = NCC[C@@H](N)C(=O)O; hSer = N[C@@H](CCO)C(=O)O; Orn = NCCC[C@H](N)C(=O)O; Dab = NCC[C@H](N)C(=O)O

Experiments:
Format in all cases: cell-based
[1] = system: human red blood cells (hRBC); details: red cells of human, 1 h, 200 μg/mL
In short: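 Peptides at 200 μg/mL incubated 1 h at 37 °C with 20% (v/v) washed human RBC, shaking. Hemolysis from supernatant OD540, expressed as percent of 2.5% Triton X-100 lysis, with PBS as 0%.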

[2] = system: Escherichia coli MCR-1 Af 45; details: MCR-1 Af 45
In short: (§1)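 MICs were determined by CLSI broth microdilution in cation-adjusted Mueller-Hinton II broth with about 5×10^5 CFU/mL inoculum. Peptides were tested in two-fold serial dilutions with 0.002% polysorbate 80 final. MIC in μg/mL is the lowest concentration with no visible growth after 18-20 h at 35 °C.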

[3] = system: Escherichia coli ATCC 25922; details: ATCC 25922
In short: as §1

[4] = system: Klebsiella pneumoniae SSI3010; details: SSI3010
In short: as §1

Compound | Escherichia coli MCR-1 Af45 MIC [2] [mg/L] | Escherichia coli ATCC 25922 MIC [3] [mg/L] | Klebsiella pneumoniae SSI3010 MIC [4] [mg/L] | Hemolysis at 0.2 g/L [1] [%]
CC[C@H](C)[C@H](NC(=O)[C@@H]1C[C@@H](O)CN1C(=O)[C@@H](NC(=N)N)C(C)C)C(=O)N[C@H]1CCNC(=O)CC[C@@H](C(=O)N[C@@H](Cc2ccc(O)cc2)C(=O)O)NC(=O)[C@H](CCN)NC(=O)[C@H](CCN)NC(=O)[C@H](CCCCN)NC(=O)[C@@H](CCN)NC(=O)[C@H]([C@@H](C)O)NC(=O)[C@H](CCN)NC(=O)[C@H](CCCNC(=N)N)NC(=O)[C@H](CC(N)=O)NC(=O)[C@H](CCO)NC(=O)[C@H](Cc2ccc(O)cc2)NC1=O [Example 118, Gua-Val-Hyp-Ile-Dab-Tyr-Hse-Asn-Arg-Dab-Thr-^DDab-Lys-Dab-Dab-Glu-Tyr] ({Val(Nα-amidino)}-[Hyp]I[Dab]Y[hSer]NR[Dab]T[dDab]K[Dab][Dab]EY-OH; lactam 3-14) | 0.0625 | 0.0625 | 0.125 | <1
CC[C@H](C)[C@H](NC(=O)[C@@H]1C[C@@H](O)CN1C(=O)[C@@H](NC(=N)N)C(C)C)C(=O)N[C@H]1CCNC(=O)CC[C@@H](C(=O)N[C@@H](Cc2ccc(O)cc2)C(=O)O)NC(=O)[C@H](CCN)NC(=O)[C@H](CCN)NC(=O)[C@H](CCCN)NC(=O)[C@@H](CCN)NC(=O)[C@H]([C@@H](C)O)NC(=O)[C@H](CCN)NC(=O)[C@H](CCCNC(=N)N)NC(=O)[C@H](CC(N)=O)NC(=O)[C@H]([C@@H](C)O)NC(=O)[C@H](Cc2ccc(O)cc2)NC1=O [Example 119, Gua-Val-Hyp-Ile-Dab-Tyr-Thr-Asn-Arg-Dab-Thr-^DDab-Orn-Dab-Dab-Glu-Tyr] ({Val(Nα-amidino)}-[Hyp]I[Dab]YTNR[Dab]T[dDab][Orn][Dab][Dab]EY-OH; lactam 3-14) | 0.0625 | 0.0625 | 0.125 | <1
CC[C@H](C)[C@H](NC(=O)[C@@H]1C[C@@H](O)CN1C(=O)[C@@H](NC(=N)N)C(C)C)C(=O)N[C@@H]1C(=O)N[C@@H](Cc2ccc(O)cc2)C(=O)N[C@@H](CCN)C(=O)N[C@@H](CC(N)=O)C(=O)N[C@@H](CCCNC(=N)N)C(=O)N[C@@H](CCN)C(=O)N[C@@H]([C@@H](C)O)C(=O)N[C@H](CCN)C(=O)N[C@@H](CCN)C(=O)N[C@@H]([C@@H](C)O)C(=O)N[C@@H](CCN)C(=O)N[C@H](C(=O)N[C@@H](Cc2ccc(O)cc2)C(=O)O)CSSC1(C)C [Example 120, Gua-Val-Hyp-Ile-Pen-Tyr-Dab-Asn-Arg-Dab-Thr-^DDab-Dab-Thr-Dab-Cys-Tyr] ({Val(Nα-amidino)}-[Hyp]I[Pen]Y[Dab]NR[Dab]T[dDab][Dab]T[Dab]CY-OH; disulfide 3-14) | 0.0625 | 0.125 | 0.125 | <1
CC[C@H](C)[C@H](NC(=O)[C@@H]1C[C@@H](O)CN1C(=O)[C@@H](NC(=N)N)C(C)C)C(=O)N[C@@H]1C(=O)N[C@@H](Cc2ccc(O)cc2)C(=O)N[C@@H](CCN)C(=O)N[C@@H](CC(N)=O)C(=O)N[C@@H](CCCNC(=N)N)C(=O)N[C@@H](CCN)C(=O)N[C@@H]([C@@H](C)O)C(=O)N[C@H](CCN)C(=O)N[C@@H](CCCN)C(=O)N[C@@H]([C@@H](C)O)C(=O)N[C@@H](CCN)C(=O)N[C@H](C(=O)N[C@@H](Cc2ccc(O)cc2)C(=O)O)CSSC1(C)C [Example 121, Gua-Val-Hyp-Ile-Pen-Tyr-Dab-Asn-Arg-Dab-Thr-^DDab-Orn-Thr-Dab-Cys-Tyr] ({Val(Nα-amidino)}-[Hyp]I[Pen]Y[Dab]NR[Dab]T[dDab][Orn]T[Dab]CY-OH; disulfide 3-14) | 0.0625 | 0.0625 | 0.125 | <1
CC[C@H](C)[C@H](NC(=O)[C@@H]1C[C@@H](O)CN1C(=O)[C@@H](NC(=N)N)C(C)C)C(=O)N[C@@H]1C(=O)N[C@@H](Cc2ccc(O)cc2)C(=O)N[C@@H](CCCNC(N)=O)C(=O)N[C@@H](CC(N)=O)C(=O)N[C@@H](CCCNC(=N)N)C(=O)N[C@@H](CCN)C(=O)N[C@@H]([C@@H](C)O)C(=O)N[C@H](CCN)C(=O)N[C@@H](CO)C(=O)N[C@@H](CCN)C(=O)N[C@@H](CCN)C(=O)N[C@H](C(=O)N[C@@H](Cc2ccc(O)cc2)C(=O)O)CSSC1(C)C [Example 122, Gua-Val-Hyp-Ile-Pen-Tyr-Cit-Asn-Arg-Dab-Thr-^DDab-Ser-Dab-Dab-Cys-Tyr] ({Val(Nα-amidino)}-[Hyp]I[Pen]Y[Cit]NR[Dab]T[dDab]S[Dab][Dab]CY-OH; disulfide 3-14) | 0.25 | 0.125 | 0.25 | <1
CC[C@H](C)[C@H](NC(=O)[C@@H]1C[C@@H](O)CN1C(=O)[C@@H](NC(=N)N)C(C)C)C(=O)N[C@@H]1C(=O)N[C@@H](Cc2ccc(O)cc2)C(=O)N[C@@H]([C@@H](C)O)C(=O)N[C@@H](CC(N)=O)C(=O)N[C@@H](CCCNC(=N)N)C(=O)N[C@@H](CCN)C(=O)N[C@@H]([C@@H](C)O)C(=O)N[C@H](CCN)C(=O)N[C@@H](CCN)C(=O)N[C@@H](CCN)C(=O)N[C@@H](CCN)C(=O)N[C@H](C(=O)N[C@@H](Cc2ccc(O)cc2)C(=O)O)CSSC1(C)C [Example 123, Gua-Val-Hyp-Ile-Pen-Tyr-Thr-Asn-Arg-Dab-Thr-^DDab-Dab-Dab-Dab-Cys-Tyr] ({Val(Nα-amidino)}-[Hyp]I[Pen]YTNR[Dab]T[dDab][Dab][Dab][Dab]CY-OH; disulfide 3-14) | 0.03125 | 0.0625 | 0.0625 | <1
CC[C@H](C)[C@H](NC(=O)[C@@H]1C[C@@H](O)CN1C(=O)[C@@H](NC(=N)N)C(C)C)C(=O)N[C@@H]1C(=O)N[C@@H](Cc2ccc(O)cc2)C(=O)N[C@@H]([C@@H](C)O)C(=O)N[C@@H](CC(N)=O)C(=O)N[C@@H](CCCNC(=N)N)C(=O)N[C@@H](CCN)C(=O)N[C@@H]([C@@H](C)O)C(=O)N[C@H](CCN)C(=O)N[C@@H](CCCN)C(=O)N[C@@H](CCN)C(=O)N[C@@H](CCN)C(=O)N[C@H](C(=O)N[C@@H](Cc2ccc(O)cc2)C(=O)O)CSSC1(C)C [Example 124, Gua-Val-Hyp-Ile-Pen-Tyr-Thr-Asn-Arg-Dab-Thr-^DDab-Orn-Dab-Dab-Cys-Tyr] ({Val(Nα-amidino)}-[Hyp]I[Pen]YTNR[Dab]T[dDab][Orn][Dab][Dab]CY-OH; disulfide 3-14) | 0.03125 | 0.03125 | 0.125 | <1

Now from value to compound, other results behind:

Escherichia coli MCR-1 Af45 MIC [2] [mg/L] | Escherichia coli ATCC 25922 MIC [3] [mg/L] | Klebsiella pneumoniae SSI3010 MIC [4] [mg/L] | Compound | Hemolysis at 0.2 g/L [1] [%]
0.0625 | 0.125 | 0.125 | CC[C@H](C)[C@H](NC(=O)[C@@H]1C[C@@H](O)CN1C(=O)[C@@H](NC(=N)N)C(C)C)C(=O)N[C@@H]1C(=O)N[C@@H](Cc2ccc(O)cc2)C(=O)N[C@@H](CCO)C(=O)N[C@@H](CC(N)=O)C(=O)N[C@@H](CCCNC(=N)N)C(=O)N[C@@H](CCN)C(=O)N[C@@H]([C@@H](C)O)C(=O)N[C@H](CCN)C(=O)N[C@@H](CCCCN)C(=O)N[C@@H](CCN)C(=O)N[C@@H](CCN)C(=O)N[C@H](C(=O)N[C@@H](Cc2ccc(O)cc2)C(=O)O)CSSC1(C)C [Example 117, Gua-Val-Hyp-Ile-Pen-Tyr-Hse-Asn-Arg-Dab-Thr-^DDab-Lys-Dab-Dab-Cys-Tyr] ({Val(Nα-amidino)}-[Hyp]I[Pen]Y[hSer]NR[Dab]T[dDab]K[Dab][Dab]CY-OH; disulfide 3-14) | <1
0.03125 | 0.125 | 0.125 | CC[C@H](C)[C@H](NC(=O)[C@@H]1C[C@@H](O)CN1C(=O)[C@@H](NC(=N)N)C(C)C)C(=O)N[C@@H]1C(=O)N[C@@H](Cc2ccc(O)cc2)C(=O)N[C@@H](CO)C(=O)N[C@@H](CC(N)=O)C(=O)N[C@@H](CCCNC(=N)N)C(=O)N[C@@H](CCN)C(=O)N[C@@H]([C@@H](C)O)C(=O)N[C@H](CCN)C(=O)N[C@@H](CCN)C(=O)N[C@@H](CCN)C(=O)N[C@@H](CCN)C(=O)N[C@H](C(=O)N[C@@H](Cc2ccc(O)cc2)C(=O)O)CSSC1(C)C [Example 125, Gua-Val-Hyp-Ile-Pen-Tyr-Ser-Asn-Arg-Dab-Thr-^DDab-Dab-Dab-Dab-Cys-Tyr] ({Val(Nα-amidino)}-[Hyp]I[Pen]YSNR[Dab]T[dDab][Dab][Dab][Dab]CY-OH; disulfide 3-14) | <1
0.03125 | 0.125 | 0.125 | CC[C@H](C)[C@H](NC(=O)[C@@H]1C[C@@H](O)CN1C(=O)[C@@H](NC(=N)N)C(C)C)C(=O)N[C@@H]1C(=O)N[C@@H](Cc2ccc(O)cc2)C(=O)N[C@@H](CO)C(=O)N[C@@H](CC(N)=O)C(=O)N[C@@H](CCCNC(=N)N)C(=O)N[C@@H](CCN)C(=O)N[C@@H]([C@@H](C)O)C(=O)N[C@H](CCN)C(=O)N[C@@H](CCCN)C(=O)N[C@@H](CCN)C(=O)N[C@@H](CCN)C(=O)N[C@H](C(=O)N[C@@H](Cc2ccc(O)cc2)C(=O)O)CSSC1(C)C [Example 126, Gua-Val-Hyp-Ile-Pen-Tyr-Ser-Asn-Arg-Dab-Thr-^DDab-Orn-Dab-Dab-Cys-Tyr] ({Val(Nα-amidino)}-[Hyp]I[Pen]YSNR[Dab]T[dDab][Orn][Dab][Dab]CY-OH; disulfide 3-14) | <1
